# Columns and labels:
# reelin = assay: Reelin cytokine analysis (Human reelin ELISA Kit) in human dermal lymphatic endothelial cells; type: cell-based; settings: HDLEC, 48 hours, compared with DMSO control group (100%); extract 1-100 μg/ml, compound 100-2000 nmole; FIGS. 3 and 4
# Protocol: Human dermal lymphatic endothelial cells were cultured in 6 well plates for 24 hours, while treated with DMSO as a control group (reference; 100%), treated with the fermented ginseng extract of the preparation example and the compound represented by Chemical Formula 1-1 (Sigma-Aldrich Co., Ltd.) at each concentration of 1 μg/ml, 10 μg/ml, 20 μg/ml, 50 μg/ml, and 100 μg/ml and at each concentration of 100 nmole, 250 nmole, 500 nmole, 1000 nmole, and 2000 nmole, cultured for 48 hours, and then measured with respect to production and activity of reelin through a reelin cytokine analysis according to a manual by using Human reelin ELISA Kit (Mybiosource, Inc., U.S.A.), and the results are shown in FIGS. 3 and 4.
# VEGF-C = VEGF-C cytokine analysis (VEGFC Human ELISA Kit) in normal human epidermal keratinocytes; type: cell-based; settings: NHEK, 48 hours, compared with DMSO control group (100%); extract 1-100 μg/ml, compound 100-2000 nmoles; FIGS. 5 and 6
# Protocol: Normal human epidermal keratinocytes were cultured in 6 well plates for 24 hours, while treated with DMSO as a control group (reference; 100%), treated with the fermented ginseng extract of the preparation example and the compound represented by Chemical Formula 1-1 (Sigma-Aldrich Co., Ltd.) at each concentration of 1, 10, 20, 50 and 100 μg/ml and at each concentration of 100, 250, 500, 1000, and 2000 nmoles, cultured for 48 hours, and then measured with respect to production and activity of VEGF-C through VEGF-C cytokine analysis by using VEGFC Human ELISA Kit (ThermoFisher Scientific, U.S.A.) according to a manual, and the results are shown in FIGS. 5 and 6.
smiles,measurement,setting,value
CC(C)=CCC[C@](C)(O[C@@H]1O[C@H](CO[C@@H]2O[C@H](CO)[C@@H](O)[C@H](O)[C@H]2O)[C@@H](O)[C@H](O)[C@H]1O)[C@H]1CC[C@]2(C)[C@@H]1[C@H](O)C[C@@H]1[C@@]3(C)CC[C@H](O[C@@H]4O[C@H](CO)[C@@H](O)[C@H](O)[C@H]4O)C(C)(C)[C@@H]3CC[C@]12C,production and activity of reelin,reelin,improved production and activity of reelin
same,production and activity of VEGF-C,VEGF-C,more improved the production and activity of VEGF-C
